Experimental findings from patent publication US20080063636A1, “Variant Amyloid Protein” (priority 2004, published 2008) are described below.

This assay has as its system human cultured cell HEK cells. The assay can be described thus: Quantification of amyloid protein secreted by HEK cells expressing APP cDNA. In kind it is cell-based. Also noted: Aβ42: unit not given here. The conditions noted are these: secreted by HEK cells expressing the APP cDNA, 2 days, culture supernatant. The text has this: Since the variant APP gene cDNA obtained in Example 1 had the variant inside the amyloid protein, a β secretase or γ secretase cleavage site was examined. Then, an expression vector of the variant APP gene cDNA was introduced into human cultured cell HEK cells known to express APP as well as to produce and secrete amyloid protein. The expression was left to occur for 2 days to obtain a culture supernatant, and an immunoprecipitated fraction obtained by using an anti-amyloid protein antibody was subjected to a mass analysis with the use of AXIMA-CFR manufactured by Shimadzu Corporation.
Note that a vacant expression vector dissolved into a normal saline was used as the control in Table 1. Also, Aβ42 represents Aβ1-42 and Aβ1-43 or Aβ1-42 (ΔE) and Aβ1-43 (ΔE), and Aβ40 represents Aβ1-40 or Aβ1-40 (ΔE).

“Wildtype APP: wildtype amyloid precursor protein expressed in human cultured HEK cells” came in with an Aβ40 (Aβ40 = Aβ1-40 or Aβ1-40 (ΔE)) of 200 pg/mL. The same substance registered an Aβ42 (Aβ42 = Aβ1-42 and Aβ1-43 or their ΔE forms) of 26.
